How the values were obtained:
[1] = test system: TRPM5-expressing HEK-293 cells (TRPM5-293); assay: FLIPR membrane potential assay in TRPM5-293 cells; assay type: cell-based, human; settings: for effect on AITC membrane potential response: pre-treatment, then AITC, TRPM5-293 cells
Protocol: To create a stably transfected cell line expressing hTRPM5, 1.0×10^6 HEK 293 cells (ATCC, Manassas, Va.) were seeded in 35 mm tissue culture dishes (Falcon, BD Biosciences, Bedford, Mass.) and grown overnight in a 37° C. and 5% CO2 incubator, in culture medium consisting of DMEM, 10% fetal bovine serum (FBS), and penicillin with streptomycin. The next day, the cells were transfected using 4 μg of pcDNA 3.2-hTRPM5 with 7 μl of Lipofectamine 2000 (Invitrogen), following the manufacturer's protocol. After two days in culture, the cells were replated at 1:10 and 1:100 dilution, and from those plates seeded at very low density in 96-well plates to isolate single-cell colonies. To select individual clones, 1 mg/ml Geneticin (Invitrogen) was added to the culture medium. Once stably expressing clones were identified, the concentration of Geneticin was reduced to 0.25 mg/ml for expansion and maintenance. Clones were selected on the basis of their response to ATP (Sigma) and lonomycin (Sigma) in the FLIPR® assay using the Membrane Potential Assay Kit RED (Molecular Devices). Stable cell lines in chinese hamster ovary cells (CHO-M1) were created similarly except that 5.0×10^5 cells were plated in 35 mm dishes overnight and the selection medium consisted of F-12K/Ham's, 10% fetal bovine serum (FBS), 100 μg/ml of Geneticin, and 10 μg/ml Blasticidin S HCl, and penicillin with streptomycin. Stably expressing clones were maintained in the same medium except that the Balsticidin S HCl concentration was reduced to 5 μg/ml.
(§1) For hTRPM5-293 or HEK293 assays, cells were seeded overnight in poly-D-lysine coated 384-well plates at 15,000 cells per well in 20 μl of media. For assays of hTrpM5-CHO-M1 assays cells were seeded overnight in tissue culture treated 384-well plates at 10,000 cells per well in 20 μl of media. The assay was performed using a fluorometric imaging plate reader (FLIPR-Tetra™, Molecular Devices, Sunnyvale, Calif.), using the excitation 510-545 nm and emission 565-625 nm filter sets. The cells were loaded with 20 μl/well of Membrane Potential Assay Kit RED dye (Molecular Devices), in a 37° C. and 5% CO2 incubator for 1 hour. To measure intracellular calcium changes, the Calcium 3 dye (Molecular Devices) supplemented with 125 μM was used. The plates were equilibrated to room temperature for 15 minutes before the start of the assay. The compounds allyl isothiocyanate (AITC), cinnamaldehyde, EGTA, ionomycin, U73122, U73144 were purchased from Sigma-Aldrich (St. Louis, Mo.) and stocks prepared in DMSO. Samples were diluted in HBSS with 20 mM HEPES prior to the assay and 10 μl per well was added to the assay plate. The plates were read on the FLIPR® for a total of 3 minutes for a single addition assay and 6 minutes for a 2 addition assay. For single addition assays, baseline fluorescence was obtained on the FLIPR® for 10 seconds followed by addition of each sample by the FLIPR® and read for an additional 2 minutes and 50 seconds. For 2 addition assays, baseline fluorescence was obtained on the FLIPR® for 10 seconds followed by addition of the first sample (e.g. inhibitors, EGTA) by the FLIPR®, read for 2 minutes and 50 seconds, then followed by the addition of AITC and read for another 3 minutes. For ΔRFU measurements, the baseline fluorescence signal (RFUmin) was subtracted from the peak fluorescence signal (RFUmax) at each compound concentration (RFUmax—RFUmin). ΔRFU values for individual concentrations were measured in triplicate, and s.d. reported as error bars.

[2] = test system: TRPM5-expressing HEK-293 cells (TRPM5-293); assay: FLIPR calcium assay in TRPM5-293 cells; assay type: cell-based, human; settings: for effect on AITC calcium response: pre-treatment, then AITC, TRPM5-293 cells
Protocol: (§2) To create a stably transfected cell line expressing hTRPM5, 1.0×10^6 HEK 293 cells (ATCC, Manassas, Va.) were seeded in 35 mm tissue culture dishes (Falcon, BD Biosciences, Bedford, Mass.) and grown overnight in a 37° C. and 5% CO2 incubator, in culture medium consisting of DMEM, 10% fetal bovine serum (FBS), and penicillin with streptomycin. The next day, the cells were transfected using 4 μg of pcDNA 3.2-hTRPM5 with 7 μl of Lipofectamine 2000 (Invitrogen), following the manufacturer's protocol. After two days in culture, the cells were replated at 1:10 and 1:100 dilution, and from those plates seeded at very low density in 96-well plates to isolate single-cell colonies. To select individual clones, 1 mg/ml Geneticin (Invitrogen) was added to the culture medium. Once stably expressing clones were identified, the concentration of Geneticin was reduced to 0.25 mg/ml for expansion and maintenance. […]
For hTRPM5-293 or HEK293 assays, cells were seeded overnight in poly-D-lysine coated 384-well plates at 15,000 cells per well in 20 μl of media. […] The assay was performed using a fluorometric imaging plate reader (FLIPR-Tetra™, Molecular Devices, Sunnyvale, Calif.), using the excitation 510-545 nm and emission 565-625 nm filter sets. […] The plates were read on the FLIPR® for a total of 3 minutes for a single addition assay and 6 minutes for a 2 addition assay. For single addition assays, baseline fluorescence was obtained on the FLIPR® for 10 seconds followed by addition of each sample by the FLIPR® and read for an additional 2 minutes and 50 seconds. For 2 addition assays, baseline fluorescence was obtained on the FLIPR® for 10 seconds followed by addition of the first sample (e.g. inhibitors, EGTA) by the FLIPR®, read for 2 minutes and 50 seconds, then followed by the addition of AITC and read for another 3 minutes. For ΔRFU measurements, the baseline fluorescence signal (RFUmin) was subtracted from the peak fluorescence signal (RFUmax) at each compound concentration (RFUmax—RFUmin). ΔRFU values for individual concentrations were measured in triplicate, and s.d. reported as error bars.

[3] = test system: parental HEK-293 cells; assay: FLIPR calcium assay in untransfected cells; assay type: cell-based, human; settings: untransfected (parental HEK-293) cells
Protocol: as §1, with “The plates were equilibrated to room temperature for 15 minutes before the start of the assay. The compounds allyl isothiocyanate (AITC), cinnamaldehyde, EGTA, ionomycin, U73122, U73144 were purchased from Sigma-Aldrich (St. Louis, Mo.) and stocks prepared in DMSO. Samples were diluted in HBSS with 20 mM HEPES prior to the assay and 10 μl per well was added to the assay plate.” left out, “For ΔRFU measurements, the baseline fluorescence signal (RFUmin) was subtracted from the peak fluorescence signal (RFUmax) at each compound concentration (RFUmax—RFUmin). ΔRFU values for individual concentrations were measured in triplicate, and s.d. reported as error bars.” left out

[4] = test system: Chinese hamster ovary (CHO) cells expressing TRPM5; assay: FLIPR assay in CHO cells expressing TRPM5; assay type: cell-based; settings: TRPM5 expressed in CHO cells
Protocol: as §2, with “colonies.” for “colonies. To select individual clones, 1 mg/ml Geneticin (Invitrogen) was added to the culture medium. Once stably expressing clones were identified, the concentration of Geneticin was reduced to 0.25 mg/ml for expansion and maintenance.”
For hTRPM5-293 or HEK293 assays, cells were seeded overnight in poly-D-lysine coated 384-well plates at 15,000 cells per well in 20 μl of media. […] The assay was performed using a fluorometric imaging plate reader (FLIPR-Tetra™, Molecular Devices, Sunnyvale, Calif.), using the excitation 510-545 nm and emission 565-625 nm filter sets. […] The plates were read on the FLIPR® for a total of 3 minutes for a single addition assay and 6 minutes for a 2 addition assay. For single addition assays, baseline fluorescence was obtained on the FLIPR® for 10 seconds followed by addition of each sample by the FLIPR® and read for an additional 2 minutes and 50 seconds. […]

[5] = test system: TRPM5-expressing HEK cells; assay: Whole-cell electrophysiology in TRPM5-expressing HEK cells; assay type: cell-based, human; settings: whole-cell voltage clamp, voltage dependence
Protocol: Whole-cell recordings of TRP channel currents were obtained from acutely trypsinized TRPM5-expressing HEK cells. The bath solution was Hank's Balanced Salt Solution, composed of (mM); 1.2 CaCl2, 0.5 MgCl2-6H2O, 0.4 MgSO4-7H2O, 5.3 KCl, 0.4 KH2PO4, 137.9 NaCl, 0.3 Na2HPO4-7H2O, and 5.5 D-Glucose, with 20 mM HEPES (Invitrogen), pH 7.4 (NaOH). The internal pipette solution contained, in mM: 135 glutamic acid, 8 NaCl, 3 CaCl2, 10 HEPES and 10 EGTA, pH 7.2 (CsOH) (Sigma). Calculated concentration of free calcium in internal solution was 77 nM (MaxChelator, Stanford University). Recording pipettes were pulled using a Flaming/Brown Micropipette Puller (Sutter Instruments), from fire-polished borosilicate glass, to approximately 2 MΩ. Voltage clamp recordings were obtained in whole cell mode using MultiClamp 700B amplifier and Digidata 1322A converter running on Clampex 9.2 software (Axon Instruments). Recordings were performed at room temperature. Series resistance was automatically compensated immediately after the break-in. Data were sampled at 5 kHz and filtered at 1 kHz. AITC was dissolved in bath solution and applied to the cells with a multi-barrel applicator (SF-72, Warner Instruments).

[6] = agonist added to TRPM5-293 cells, FLIPR

Row | SMILES | EC50 ([1]; Homo sapiens, HEK293, read-out: EC50 (tested concentration closest to it)) | EC90 ([1]; Homo sapiens, HEK293, read-out: EC90 (tested concentration closest to it)) | membrane potential response [1, 6] | intracellular calcium levels [2, 6] | intracellular calcium response [3] | activation of TRPM5 [4] | desensitization of the AITC-activated current [5] | effect on AITC membrane potential response [1] | effect on AITC calcium response [2] | effect on ionomycin membrane potential response ([1]; ionomycin as stimulus)
1 | C=CCN=C=S [AITC, allyl isothiocyanate] | ~3 µM | ~33 µM | strong membrane potential response | increase in intracellular calcium levels | no response | does not activate | delayed at positive membrane potentials |  |  | 
2 | O=C(O)CN(CCOCCOCCN(CC(=O)O)CC(=O)O)CC(=O)O [EGTA] |  |  |  |  |  |  |  | altered the membrane potential | inhibited the calcium response | 
3 | COc1ccc2c(c1)CC[C@@H]1[C@@H]2CC[C@]2(C)[C@@H](NCCCCCCN3C(=O)C=CC3=O)CC[C@@H]12 [U73122] |  |  |  |  |  |  |  | enhanced | enhanced | enhances
